Strand notation (5' to 3'): a small letter for the sugar, then the base; units joined by * are phosphorothioate-linked, units joined directly phosphodiester-linked; [ ] holds rarer units or linkages, { } end groups; capitals alone tell only the bases. e = 2'-O-(2-methoxyethyl) (MOE); [5mC] = 5-methylcytosine; d = 2'-deoxy (DNA)
Experiments:
human CETP mRNA [1] = assay: Antisense inhibition of human CETP mRNA in SW872 liposarcoma cells (Example 1); format: cell-based; details: 150 nM antisense oligonucleotide, lipofectin, ~24 hours, relative to untreated control cells
Protocol: Antisense oligonucleotides targeted to a CETP nucleic acid were tested for their effect on CETP mRNA transcript in vitro. Cultured SW872 liposarcoma cells at a density of 50,000 cells per well in a 24-well plate were transfected using lipofectin reagent with 150 nM antisense oligonucleotide. After approximately 24 hours, RNA was isolated from the cells and CETP mRNA levels were measured by quantitative real-time PCR. A human primer probe set (forward sequence […], designated herein as SEQ ID NO: 38; reverse sequence GGCTCACGCCTTTGCTGTT, designated herein as SEQ ID NO: 39; probe sequence […], designated herein as SEQ ID NO: 40) was used to quantitate CETP mRNA. CETP mRNA transcript levels were adjusted according to total RNA content, as measured by the house-keeping gene, GAPDH mRNA levels. GAPDH was measured using a primer probe set with the sequence as set forth in SEQ ID NOs: 10, 11, 13. Results are presented as percent inhibition of CETP, relative to untreated control cells.
The antisense oligonucleotides in Table 3 are 5-10-5 gapmers, where the gap segment comprises ten 2′-deoxynucleosides and each wing segment comprises five 2′-MOE nucleosides. Each nucleotide in the 5′ wing segment and each nucleotide in the 3′ wing segment has a 2′-MOE modification. The internucleoside linkages throughout each gapmer are phosphorothioate (P═S) linkages. All cytosine residues throughout each gapmer are 5-methylcytosines. ‘Target start site’ indicates the 5′-most nucleotide to which the antisense oligonucleotide is targeted. ‘Target stop site’ indicates the 3′-most nucleotide to which the antisense oligonucleotide is targeted. All the antisense oligonucleotides listed in Table 3 target human CETP mRNA, designated herein as SEQ ID NO: 1 (GENBANK Accession No. M30185.1).

human CETP mRNA [2] = assay: Antisense inhibition of human CETP mRNA in primary hepatocytes from huCETP transgenic mice (Example 4); format: cell-based, mouse; details: cytofectin, ~24 hours
Protocol: Transgenic mice expressing human CETP, controlled by its natural flanking region, increase expression of this gene in response to hypercholesterolemia (Jiang, X. C. et al., J. Clin. Invest. 1992. 90: 1290-1295). These mice were utilized for the following studies. Antisense oligonucleotides targeted to a CETP nucleic acid and described in Example 1 were tested for their effect on CETP mRNA transcript in vitro. Cultured primary hepatocytes from huCETP transgenic mice, at a density of 17,500 cells per well in a 96-well plate, were transfected using cytofectin reagent with 100 nM or 200 nM antisense oligonucleotide. After approximately 24 hours, RNA was isolated from the cells and CETP mRNA levels were measured by quantitative real-time PCR. CETP mRNA transcript levels were adjusted according to total RNA content, as measured by the house-keeping gene, GAPDH mRNA levels. Results are presented in Table 6 as percent inhibition of CETP, relative to untreated control cells.

Substance	% inhibition (human CETP mRNA [1]) [%]	Percent inhibition of human CETP mRNA (human CETP mRNA [2]; 100 nM) [%]	Percent inhibition of human CETP mRNA (human CETP mRNA [2]; 200 nM) [%]
ISIS 349494: 5-10-5 MOE gapmer AGAATTGACCACGACTCCCT (eA*eG*eA*eA*eT*dT*dG*dA*d[5mC]*d[5mC]*dA*d[5mC]*dG*dA*d[5mC]*eT*e[5mC]*e[5mC]*e[5mC]*eT)	41	85	57
ISIS 349493: 5-10-5 MOE gapmer TGTTTTGGCAGGAGATCTTG (eT*eG*eT*eT*eT*dT*dG*dG*d[5mC]*dA*dG*dG*dA*dG*dA*eT*e[5mC]*eT*eT*eG)	67	51	62
ISIS 349453: 5-10-5 MOE gapmer GCATTGCCCAGCAGGGCCAG (eG*e[5mC]*eA*eT*eT*dG*d[5mC]*d[5mC]*d[5mC]*dA*dG*d[5mC]*dA*dG*dG*eG*e[5mC]*e[5mC]*eA*eG)	45	2	26
ISIS 349499: 5-10-5 MOE gapmer CCAAGAGGCTTAAGAAGAGC (e[5mC]*e[5mC]*eA*eA*eG*dA*dG*dG*d[5mC]*dT*dT*dA*dA*dG*dA*eA*eG*eA*eG*e[5mC])	55	80	80
ISIS 349457: 5-10-5 MOE gapmer TCTGGATCACCTTGGCAGTC (eT*e[5mC]*eT*eG*eG*dA*dT*d[5mC]*dA*d[5mC]*d[5mC]*dT*dT*dG*dG*e[5mC]*eA*eG*eT*e[5mC])	52	42	30
ISIS 349451: 5-10-5 MOE gapmer GCAGCCAGCATGGTTATCAG (eG*e[5mC]*eA*eG*e[5mC]*d[5mC]*dA*dG*d[5mC]*dA*dT*dG*dG*dT*dT*eA*eT*e[5mC]*eA*eG)	23	42	54
ISIS 349516: 5-10-5 MOE gapmer CATCTCCGTACTCCTAACCC (e[5mC]*eA*eT*e[5mC]*eT*d[5mC]*d[5mC]*dG*dT*dA*d[5mC]*dT*d[5mC]*d[5mC]*dT*eA*eA*e[5mC]*e[5mC]*e[5mC])	65	78	86
ISIS 349479: 5-10-5 MOE gapmer CTGGCAGCCCTTGTCTGGAC (e[5mC]*eT*eG*eG*e[5mC]*dA*dG*d[5mC]*d[5mC]*d[5mC]*dT*dT*dG*dT*d[5mC]*eT*eG*eG*eA*e[5mC])	67	80	66
ISIS 349449: 5-10-5 MOE gapmer CGAGCCGTTCAGCCTGGAGC (e[5mC]*eG*eA*eG*e[5mC]*d[5mC]*dG*dT*dT*d[5mC]*dA*dG*d[5mC]*d[5mC]*dT*eG*eG*eA*eG*e[5mC])	28	68	63
ISIS 349502: 5-10-5 MOE gapmer GAAGCTCTGGATGGACTCGG (eG*eA*eA*eG*e[5mC]*dT*d[5mC]*dT*dG*dG*dA*dT*dG*dG*dA*e[5mC]*eT*e[5mC]*eG*eG)	43	49	61
ISIS 349459: 5-10-5 MOE gapmer CTTCTCGCCCGTGATATCTG (e[5mC]*eT*eT*e[5mC]*eT*d[5mC]*dG*d[5mC]*d[5mC]*d[5mC]*dG*dT*dG*dA*dT*eA*eT*e[5mC]*eT*eG)	79	50	63
ISIS 349482: 5-10-5 MOE gapmer TGAAATGACCCTTGTGATGG (eT*eG*eA*eA*eA*dT*dG*dA*d[5mC]*d[5mC]*d[5mC]*dT*dT*dG*dT*eG*eA*eT*eG*eG)	51	11	65
ISIS 349488: 5-10-5 MOE gapmer GCACTGCCTTGAACTCGTCT (eG*e[5mC]*eA*e[5mC]*eT*dG*d[5mC]*d[5mC]*dT*dT*dG*dA*dA*d[5mC]*dT*e[5mC]*eG*eT*e[5mC]*eT)	47	77	87
ISIS 349481: 5-10-5 MOE gapmer AGGTAGGAGGCTGTGATGAC (eA*eG*eG*eT*eA*dG*dG*dA*dG*dG*d[5mC]*dT*dG*dT*dG*eA*eT*eG*eA*e[5mC])	66	79	65
ISIS 349452: 5-10-5 MOE gapmer CAGGACTGTGGCAGCCAGCA (e[5mC]*eA*eG*eG*eA*d[5mC]*dT*dG*dT*dG*dG*d[5mC]*dA*dG*d[5mC]*e[5mC]*eA*eG*e[5mC]*eA)	75	60	51
ISIS 349473: 5-10-5 MOE gapmer AGCAGCTTATGGAAAGACAG (eA*eG*e[5mC]*eA*eG*d[5mC]*dT*dT*dA*dT*dG*dG*dA*dA*dA*eG*eA*e[5mC]*eA*eG)	72	55	61
ISIS 349498: 5-10-5 MOE gapmer CTGGACGGTAGTCACGATAT (e[5mC]*eT*eG*eG*eA*d[5mC]*dG*dG*dT*dA*dG*dT*d[5mC]*dA*d[5mC]*eG*eA*eT*eA*eT)	80	76	84
ISIS 349501: 5-10-5 MOE gapmer GCTGCTCTCAGTCAAGTTGG (eG*e[5mC]*eT*eG*e[5mC]*dT*d[5mC]*dT*d[5mC]*dA*dG*dT*d[5mC]*dA*dA*eG*eT*eT*eG*eG)	67	54	45
ISIS 349496: 5-10-5 MOE gapmer ACAGAATGTTGCTGGTCTGG (eA*e[5mC]*eA*eG*eA*dA*dT*dG*dT*dT*dG*d[5mC]*dT*dG*dG*eT*e[5mC]*eT*eG*eG)	69	57	87
ISIS 349456: 5-10-5 MOE gapmer TCGTGGTTCAACACCAGGAG (eT*e[5mC]*eG*eT*eG*dG*dT*dT*d[5mC]*dA*dA*d[5mC]*dA*d[5mC]*d[5mC]*eA*eG*eG*eA*eG)	68	74	51
ISIS 349454: 5-10-5 MOE gapmer GTGCCTTTGGAGCAGGCATG (eG*eT*eG*e[5mC]*e[5mC]*dT*dT*dT*dG*dG*dA*dG*d[5mC]*dA*dG*eG*e[5mC]*eA*eT*eG)	46	69	68
ISIS 349446: 5-10-5 MOE gapmer GGAACATGAGGCTCTTCCGG (eG*eG*eA*eA*e[5mC]*dA*dT*dG*dA*dG*dG*d[5mC]*dT*d[5mC]*dT*eT*e[5mC]*e[5mC]*eG*eG)	0	34	36

Reference: patent US20130053430A1, “MODULATION OF CETP EXPRESSION” (Isis Pharmaceuticals, Inc., priority 2010, published 2013)
